For one experiment, the target named is human αVβ8 (Homo sapiens, UniProt P06756+P26012). The experiment can be described thus: human αVβ8 HTRF binding assay. Here is the method: (§1) All binding assays used the HTRF (homogeneous time resolved fluorescence) technology from Cisbio International, therefore all assays are described as HTRF binding assays. The assay results for the Examples are listed above together with the characterization data. The HTRF binding assays are established for the following integrins: human αVβ6, human αVβ1, human αVβ3, human αVβ5, and human αVβ8. All assays used the following assay buffer: 20 mM Tris, pH 7.4, 1 mM MgCl2, 1 mM MnCl2, 0.01% Tween 20, and 0.01% BSA. Alternatively, a SPA-based assay was used for evaluation of receptor binding. […]
In general terms: Time-resolved FRET reads energy transfer from a long-lived donor to a nearby acceptor.

Another experiment concerns the target T1, human αVβ6 (Homo sapiens, UniProt P06756+P18564).
T1 construct: purchased R & D systems 3817-AV
The experiment can be described thus: human αVβ6 HTRF binding assay. The method, boiled down:
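HTRF binding format with biotinylated integrin, FITC-fibronectin and streptavidin-terbium, run in 20 mM Tris pH 7.4, 1 mM MgCl2, 1 mM MnCl2, 0.01% Tween 20, 0.01% BSA. A SPA-based binding assay was an alternative.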

A further experiment deals with human αVβ5 (Homo sapiens, UniProt P06756+P18084). The experiment is described as follows: human αVβ5 HTRF binding assay. On the procedure:
as §1

The target of the next experiment is human αVβ3 (Homo sapiens, UniProt P05106+P06756). The experiment is described as follows: human αVβ3 HTRF binding assay. The conditions noted are these: read-out: Human αVβ3 IC50. Here is the method: (§2) All binding assays used the HTRF (homogeneous time resolved fluorescence) technology from Cisbio International, therefore all assays are described as HTRF binding assays. The assay results for the Examples are listed above together with the characterization data. The HTRF binding assays are established for the following integrins: human αVβ6, human αVβ1, human αVβ3, human αVβ5, and human αVβ8. All assays used the following assay buffer: 20 mM Tris, pH 7.4, 1 mM MgCl2, 1 mM MnCl2, 0.01% Tween 20, and 0.01% BSA. Alternatively, a SPA-based assay was used for evaluation of receptor binding.
(§3) […]

A further experiment concerns the target human αVβ1 (Homo sapiens, UniProt P05556+P06756). The experiment can be described thus: human αVβ1 HTRF binding assay. On the procedure: as §2, §3

Each structure is given as a SMILES string.

Sequence of human αVβ3 (P06756 31-992 limits assumed): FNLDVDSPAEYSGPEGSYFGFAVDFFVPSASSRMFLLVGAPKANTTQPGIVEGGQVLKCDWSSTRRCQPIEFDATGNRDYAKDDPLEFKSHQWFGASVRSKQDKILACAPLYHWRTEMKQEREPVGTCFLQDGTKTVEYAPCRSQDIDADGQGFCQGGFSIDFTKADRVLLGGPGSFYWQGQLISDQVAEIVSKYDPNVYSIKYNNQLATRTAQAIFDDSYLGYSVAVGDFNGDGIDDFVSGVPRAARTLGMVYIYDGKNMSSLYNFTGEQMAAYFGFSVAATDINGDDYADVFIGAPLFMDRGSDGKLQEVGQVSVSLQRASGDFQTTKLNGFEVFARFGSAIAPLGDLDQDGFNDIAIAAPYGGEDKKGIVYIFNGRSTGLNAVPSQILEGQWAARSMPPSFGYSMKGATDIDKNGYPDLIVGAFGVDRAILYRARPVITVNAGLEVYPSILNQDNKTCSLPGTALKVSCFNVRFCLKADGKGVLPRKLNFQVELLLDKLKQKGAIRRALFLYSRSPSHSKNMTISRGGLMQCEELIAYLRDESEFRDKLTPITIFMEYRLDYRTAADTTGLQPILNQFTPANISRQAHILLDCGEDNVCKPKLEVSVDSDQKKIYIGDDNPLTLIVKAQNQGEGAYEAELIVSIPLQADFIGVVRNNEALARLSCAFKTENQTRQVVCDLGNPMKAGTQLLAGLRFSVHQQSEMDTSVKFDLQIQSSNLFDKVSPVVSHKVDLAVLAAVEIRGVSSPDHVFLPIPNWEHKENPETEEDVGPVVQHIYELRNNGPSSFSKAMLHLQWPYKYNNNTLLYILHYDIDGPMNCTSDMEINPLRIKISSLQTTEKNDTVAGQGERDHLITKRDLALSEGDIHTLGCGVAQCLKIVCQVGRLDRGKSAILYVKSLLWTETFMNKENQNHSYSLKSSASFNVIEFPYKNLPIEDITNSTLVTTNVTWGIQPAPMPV
Sequence of human αVβ3 (P05106 27-718 limits assumed): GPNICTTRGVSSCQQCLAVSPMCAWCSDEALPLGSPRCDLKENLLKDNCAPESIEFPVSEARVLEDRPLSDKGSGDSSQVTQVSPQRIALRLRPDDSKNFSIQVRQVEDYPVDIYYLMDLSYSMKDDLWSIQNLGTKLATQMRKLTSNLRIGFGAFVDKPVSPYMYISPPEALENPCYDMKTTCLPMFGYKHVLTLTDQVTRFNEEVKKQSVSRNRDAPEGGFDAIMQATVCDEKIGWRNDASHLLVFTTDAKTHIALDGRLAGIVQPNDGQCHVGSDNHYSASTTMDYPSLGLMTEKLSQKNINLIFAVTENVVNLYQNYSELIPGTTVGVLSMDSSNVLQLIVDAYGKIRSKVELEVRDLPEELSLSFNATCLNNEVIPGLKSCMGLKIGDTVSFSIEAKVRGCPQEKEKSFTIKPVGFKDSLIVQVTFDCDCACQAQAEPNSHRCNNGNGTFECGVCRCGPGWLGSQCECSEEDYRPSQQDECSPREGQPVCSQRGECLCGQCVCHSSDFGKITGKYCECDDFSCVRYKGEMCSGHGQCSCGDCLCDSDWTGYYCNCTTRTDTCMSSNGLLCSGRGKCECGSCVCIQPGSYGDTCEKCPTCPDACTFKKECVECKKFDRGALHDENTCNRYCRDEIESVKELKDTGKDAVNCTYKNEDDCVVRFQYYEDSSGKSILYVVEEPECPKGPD
Sequence of human αVβ8 (P06756 31-992 limits assumed): as the sequence (P06756 31-992 limits assumed) above
Sequence of human αVβ8 (P26012 43-684 limits assumed): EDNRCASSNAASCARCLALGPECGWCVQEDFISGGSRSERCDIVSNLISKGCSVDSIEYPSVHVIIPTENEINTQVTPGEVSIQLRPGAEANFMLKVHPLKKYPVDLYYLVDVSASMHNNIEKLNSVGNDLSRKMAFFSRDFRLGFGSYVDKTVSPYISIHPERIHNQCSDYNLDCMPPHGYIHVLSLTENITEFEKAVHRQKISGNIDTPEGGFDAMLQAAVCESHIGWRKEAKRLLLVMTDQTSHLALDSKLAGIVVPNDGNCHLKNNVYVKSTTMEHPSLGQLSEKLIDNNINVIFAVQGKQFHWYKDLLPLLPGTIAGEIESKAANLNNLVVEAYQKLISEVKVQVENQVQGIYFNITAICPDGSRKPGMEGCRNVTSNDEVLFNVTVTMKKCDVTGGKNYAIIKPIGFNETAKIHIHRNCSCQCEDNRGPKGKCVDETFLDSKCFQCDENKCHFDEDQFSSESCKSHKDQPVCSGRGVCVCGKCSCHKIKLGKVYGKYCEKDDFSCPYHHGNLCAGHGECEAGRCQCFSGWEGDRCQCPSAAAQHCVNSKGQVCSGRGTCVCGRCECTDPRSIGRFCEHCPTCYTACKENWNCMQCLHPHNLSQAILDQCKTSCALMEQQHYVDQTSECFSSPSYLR
Sequence of human αVβ5 (P06756 31-992 limits assumed): as the sequence (P06756 31-992 limits assumed) above
Sequence of human αVβ5 (P18084 24-719 limits assumed): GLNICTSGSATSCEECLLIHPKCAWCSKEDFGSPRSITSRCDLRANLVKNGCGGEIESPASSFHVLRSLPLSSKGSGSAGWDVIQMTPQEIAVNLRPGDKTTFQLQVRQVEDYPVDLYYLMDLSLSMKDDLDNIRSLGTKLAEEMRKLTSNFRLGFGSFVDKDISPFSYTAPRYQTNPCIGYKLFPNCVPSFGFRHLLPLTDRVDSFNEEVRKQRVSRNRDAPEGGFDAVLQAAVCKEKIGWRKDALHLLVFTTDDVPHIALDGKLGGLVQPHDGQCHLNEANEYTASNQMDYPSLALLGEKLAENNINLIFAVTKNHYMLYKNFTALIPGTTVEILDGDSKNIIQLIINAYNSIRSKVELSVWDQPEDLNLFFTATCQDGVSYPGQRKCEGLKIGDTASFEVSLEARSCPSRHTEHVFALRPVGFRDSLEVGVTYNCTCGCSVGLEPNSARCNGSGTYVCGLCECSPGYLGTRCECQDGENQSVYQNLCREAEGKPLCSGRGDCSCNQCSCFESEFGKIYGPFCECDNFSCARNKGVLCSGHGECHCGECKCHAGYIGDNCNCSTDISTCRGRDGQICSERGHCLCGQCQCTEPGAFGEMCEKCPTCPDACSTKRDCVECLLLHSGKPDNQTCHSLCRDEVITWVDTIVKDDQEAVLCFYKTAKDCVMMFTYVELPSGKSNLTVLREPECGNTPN
Sequence of human αVβ1 (P06756 31-992 limits assumed): as the sequence (P06756 31-992 limits assumed) above
Sequence of human αVβ1 (P05556 21-728 limits assumed): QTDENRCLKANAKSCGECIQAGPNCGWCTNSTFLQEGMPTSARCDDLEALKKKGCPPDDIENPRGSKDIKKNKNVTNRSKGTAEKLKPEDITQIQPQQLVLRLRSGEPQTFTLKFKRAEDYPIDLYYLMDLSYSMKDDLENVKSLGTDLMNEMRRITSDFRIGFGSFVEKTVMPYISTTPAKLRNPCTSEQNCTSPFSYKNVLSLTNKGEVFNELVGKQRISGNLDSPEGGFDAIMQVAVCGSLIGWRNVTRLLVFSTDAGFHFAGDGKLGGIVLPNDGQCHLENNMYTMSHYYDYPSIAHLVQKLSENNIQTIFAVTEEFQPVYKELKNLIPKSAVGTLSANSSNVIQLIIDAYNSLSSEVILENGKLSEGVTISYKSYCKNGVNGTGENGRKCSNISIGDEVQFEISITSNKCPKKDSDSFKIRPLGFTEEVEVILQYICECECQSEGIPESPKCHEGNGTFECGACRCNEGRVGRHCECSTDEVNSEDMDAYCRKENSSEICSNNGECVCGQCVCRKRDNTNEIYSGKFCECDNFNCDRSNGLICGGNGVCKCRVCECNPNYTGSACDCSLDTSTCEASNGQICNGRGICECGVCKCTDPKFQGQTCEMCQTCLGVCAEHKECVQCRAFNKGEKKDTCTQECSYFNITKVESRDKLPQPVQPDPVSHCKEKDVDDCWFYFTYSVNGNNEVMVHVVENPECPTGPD
T1 sequence (P06756 31-992 limits assumed): as the sequence (P06756 31-992 limits assumed) above
T1 sequence (P18564 22-707 limits assumed): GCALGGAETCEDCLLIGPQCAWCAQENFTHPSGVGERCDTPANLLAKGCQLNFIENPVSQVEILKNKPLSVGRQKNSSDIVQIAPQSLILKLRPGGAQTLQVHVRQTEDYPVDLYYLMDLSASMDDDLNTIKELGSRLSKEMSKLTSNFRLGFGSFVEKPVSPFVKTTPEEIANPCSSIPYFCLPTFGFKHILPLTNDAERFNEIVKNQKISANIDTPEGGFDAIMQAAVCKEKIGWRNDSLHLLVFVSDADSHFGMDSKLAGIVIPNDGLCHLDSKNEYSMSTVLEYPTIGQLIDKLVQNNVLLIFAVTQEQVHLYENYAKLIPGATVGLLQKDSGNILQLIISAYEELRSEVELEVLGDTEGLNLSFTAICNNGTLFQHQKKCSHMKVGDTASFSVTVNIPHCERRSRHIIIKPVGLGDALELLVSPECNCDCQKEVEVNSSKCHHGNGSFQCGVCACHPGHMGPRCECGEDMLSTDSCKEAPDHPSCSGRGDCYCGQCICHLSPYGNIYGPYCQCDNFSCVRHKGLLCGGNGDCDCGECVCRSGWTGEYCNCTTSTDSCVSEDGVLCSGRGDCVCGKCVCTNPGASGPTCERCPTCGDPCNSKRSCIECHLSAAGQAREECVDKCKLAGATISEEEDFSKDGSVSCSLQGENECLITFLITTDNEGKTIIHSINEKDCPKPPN

For orientation: IC50 means the concentration at which inhibition is half-maximal. As to `Cc1cc(C)c(S(=O)(=O)N[C@@H](CNC(=O)c2ncn(CCc3ccc4c(n3)NCCC4)n2)C(=O)O)c(C)c1` [Example 123], the IC50 at human αVβ8 was 152 nM; at human αVβ6, 2 nM; at human αVβ5, 902 nM; on human αVβ3, 2.1 nM; on human αVβ1, 126 nM.

(Values after patent US10851098B2, “Azole amides and amines as alpha v integrin inhibitors” (BRISTOL-MYERS SQUIBB COMPANY, priority 2016, dated 2020).)
